Assay results taken from article PMC3532304, “Piperidinols That Show Anti-Tubercular Activity as Inhibitors of Arylamine N-Acetyltransferase: An Essential Enzyme for Mycobacterial Survival Inside Macrophages” (PLoS ONE, 2012).
Converted amounts (≈) assume the structure as drawn. “And” between values parts separate entries of the source, which are not always exact repeats. Equal values may be shown once. Read-outs that look alike come from different tables or passages of the source.

Legend:
[1] = system: M. bovis BCG; test: microbe, parasite or virus in culture; type: cell-based; conditions: for MIC: Mycobacterium tuberculosis variant bovis BCG, BCG, 336 h, read-out: MIC M. bovis BCG; for MIC M. bovis BCG: solid 7H10-OADC medium, no growth after 2 weeks
[2] = system: M. tuberculosis H37Rv; test: Mycobacterial growth inhibition in vitro (spot culture on solid medium); type: cell-based; conditions: for MIC: Mycobacterium tuberculosis, H37RV, 336 h, read-out: MIC M. tuberculosis; for MIC M. tuberculosis: H37Rv, solid 7H10-OADC medium, no growth after 2 weeks
[3] = molecular target: T1, MMNAT (Mycobacterium marinum, UniProt B2HIZ6); test: NAT-inhibition assay (Ac-CoA hydrolysis with hydralazine, Ellman's reagent); type: biochemical, M. marinum; conditions: for inhibition at 50 µM: read-out: MMNAT % Inhibition; for IC50: mean ± S.D.
Method: (§1) An assay for measuring the formation of CoA was used to determine the activity of the enzyme in the presence of potential inhibitors. All the tested compounds were dissolved in dimethylsulphoxide (DMSO) and all reactions were carried out in the presence of 5% (v/v) DMSO. The enzyme (100–150 ng) was mixed with the inhibitors 1–5 (5 µL at a final concentration of 0–250 µM) and incubated for 15 min at 24°C prior to starting the reaction by adding 15 µL hydralazine and 12 µL Ac-CoA at final concentrations of 150 µM and 120 µM respectively, in a final total volume of 100 µL of 20 mM Tris-HCl pH 8. The assay was performed as an end-point read out measurement by stopping the reaction after 10 min at 24°C using 25 µL Ellman's reagent (5 mM 5,5′-dithiobis-(2-nitrobenzoate) solution in 6.4 M guanidine-HCl and 100 mM Tris-HCl, pH 7.3). The absorbance was measured at a wavelength of 405 nm within 2 min (Tecan Sunrise Plate Reader). The assays were repeated using a 10-fold enzyme concentration to exclude promiscuous non-specific inhibitors. The activity of the enzyme in the presence of 5% (v/v) DMSO was measured as a control. Inhibition values were determined as the ratio of the enzyme activity (expressed as the rate of CoA formation per microgram protein (µM/min.µg)) with the requisite compound, to the activity of the control without inhibitor. IC50 values were determined from the inhibition curves which were obtained by non-linear fitting of the % inhibition and the inhibitor concentration (µM) using the Log(inhibitor) vs. response module of GraphPad Prism 5.0.

[4] = molecular target: T2, TBNAT (Mycobacterium tuberculosis, UniProt P9WJI5); test: as above; type: biochemical, M. tuberculosis; conditions: for IC50: mean ± S.D.; for inhibition at 50 µM: read-out: TBNAT % Inhibition
T2 construct: made in house
Method: as §1

[5] = molecular target: T1, MMNAT; test: Time-dependent inhibition assay (Kitz and Wilson model); type: biochemical, M. marinum; conditions: 24°C
Method: The time course of the inhibition of NAT by the piperidinols was evaluated according to the Kitz and Wilson model. Irreversible inhibition, progressive with time, was measured for the piperidinol inhibitors (1–5) by the protocol described in Figure S2, and the values of the apparent first order constant (kobs) were determined (Table 1). Dilution rather than dialysis was used in this protocol due to the likely loss of activity upon dialysis (Figure 3). […] Examples of the curves obtained for enzyme activity against incubation time upon inhibition of MMNAT and TBNAT by the piperidinols are shown in Figure 4.
For the determination of the time dependence of interaction between enzymes and inhibitors, the inhibitor was diluted to less than 1% concentration. Incubation mixtures (20 µL) contained 0.06 mM MMNAT or TBNAT in 20 mM Tris-HCl, pH 8 and 5% (v/v) DMSO and variable concentrations of the inhibitors (0–50 µM) were prepared using the protocol described in Figure S1. Aliquots of 1 µL were removed from the reaction mixture at different time points (incubation-time) and diluted to 100 µL using the assay buffer containing HLZ and Ac-CoA to the final concentrations of 150 µM and 120 µM, respectively. The rate of Ac-CoA hydrolysis was measured over a three-minute time period. The reaction was stopped with 25 µL Ellman's reagent in 6.4 M guanidine and the absorbance was measured at a wavelength of 405 nm. The residual activity was measured as a percentage of a control prepared as described in Figure S1 and plotted against the incubation-time. The data were fitted using the Semilog line (X is linear, Y is Log) module of GraphPad Prism 5.0. The slope of each line is equivalent to (−kobs/2.303) at each inhibitor concentration.The controls in which no enzyme was present using CoA and Ellman's reagent gave the same results whether compound 1 was present or not.

[6] = molecular target: T1, MMNAT; test: ESI-MS analysis of covalent enzyme-inhibitor adducts; type: binding, M. marinum; conditions: enzyme-to-inhibitor ratio 1∶1; for Δm of enzyme-inhibitor adduct (MMNAT): 24°C, 30–60 min; for Molar ratio (inhibitor/protein) (MMNAT): proposed number of inhibition species bound per protein molecule
Method: ESI-MS was performed as described previously. A sample of 2.5 mg/mL (80 µM) MMNAT was analyzed on a Micromass LCT mass spectrometer. The samples were pretreated with DMSO or 0.08–1.2 mM inhibitor dissolved in DMSO to a final percentage of 5% (v/v) DMSO and incubated for 30–60 min before analysis. ESI-MS analysis was performed in positive ion mode after denaturation in 50% v/v acetonitrile in water with an accuracy of ±0.1%. The sample was run over a desalting column prior to MS analysis.

[7] = molecular target: T2, TBNAT; test: as above; type: binding, M. tuberculosis
[8] = system: NAT; test: Inhibition of NAT activity by PVK; type: biochemical; conditions: within 10 minutes, at less than 1 µM
[9] = system: M. tuberculosis; parameters: method as in PMID 13402115; conditions: cited from earlier work
[10] = molecular target: T3, human NAT1 (Homo sapiens, UniProt P18440); test: Specificity panel of recombinant NAT enzymes (Ac-CoA hydrolysis with 5ASA); type: biochemical; conditions: 30 µM
T3 construct: made in house
T3 sequence (P18440 1-290): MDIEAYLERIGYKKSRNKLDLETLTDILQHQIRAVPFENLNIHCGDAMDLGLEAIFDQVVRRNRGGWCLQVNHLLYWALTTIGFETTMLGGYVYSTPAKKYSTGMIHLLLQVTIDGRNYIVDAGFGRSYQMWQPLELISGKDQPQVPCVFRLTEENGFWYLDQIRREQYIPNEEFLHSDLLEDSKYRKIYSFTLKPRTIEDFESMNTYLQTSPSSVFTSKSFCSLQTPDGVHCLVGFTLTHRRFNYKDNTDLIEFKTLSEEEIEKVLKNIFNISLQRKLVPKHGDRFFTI
Method: (§2) Figure 2 Specificity of compound 1 for prokaryotic NAT enzymes. Compound 1 was tested at 30 µM against pure recombinant NAT enzymes from M. smegmatis (MSNAT), P. aeruginosa (PANAT), S. typhimurium (STNAT), MMNAT and TBNAT, and also against two eukaryotic enzymes, hamster NAT2 (shNAT2) and human NAT1. The results are shown as the mean ± S.D. of triplicate determinations of the percentage inhibition of hydrolysis of Ac-CoA in the presence of 5-aminosalicylic acid (5ASA) and against TBNAT using hydralazine as a substrate. The inhibition is represented as a percentage compared to an uninhibited control from triplicate measurements. The structure of compound 1 is shown and the piperidinol nucleus is highlighted by the shaded area.

[11] = molecular target: T4, hamster NAT2 (shNAT2) (Mesocricetus auratus, UniProt P50293); test: as above; type: biochemical; conditions: 30 µM
T4 construct: made in house
T4 sequence (P50293 1-290): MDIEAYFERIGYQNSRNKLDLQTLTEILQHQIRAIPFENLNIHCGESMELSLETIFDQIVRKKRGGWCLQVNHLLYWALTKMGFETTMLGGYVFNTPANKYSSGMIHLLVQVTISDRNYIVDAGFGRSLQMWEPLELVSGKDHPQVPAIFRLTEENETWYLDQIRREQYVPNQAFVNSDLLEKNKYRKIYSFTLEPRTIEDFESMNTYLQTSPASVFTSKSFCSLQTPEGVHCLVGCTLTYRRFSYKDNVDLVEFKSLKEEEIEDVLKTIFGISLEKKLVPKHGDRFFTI
Method: as §2

[12] = molecular target: T2, TBNAT; test: Reversibility of inhibition by dialysis; type: biochemical, M. tuberculosis; conditions: 15-fold molar excess, 1 h at 24°C, dialysis 16 h at 4°C
Method: (§3) Figure 3 Reversibility of the inhibition of TBNAT and MMNAT by compound 1. Each enzyme (MMNAT, TBNAT, 0.07 mM, 50 µL) was preincubated either alone or with 15-fold molar excess 1 at 24°C for 1 h. Each sample was then dialysed against 1 L fresh assay buffer (20 mM Tris-HCl pH 8) at 4°C for 16 h. The enzyme activities of the samples were measured before dialysis and then measured after dialysis by measuring the rate of Ac-CoA hydrolysis in the presence of HLZ as described in Methods. The mean ± S.D. of three measurements of the activity is shown. Loss of enzyme activity upon dialysis is likely to be due to the oxidation of the active site sulfhydryl group, especially since dialysis was performed in the absence of dithiothreitol.
(§4) For the reversibility studies, excess inhibitor was […] by dialysis. Each enzyme (0.07 mM MMNAT or TBNAT in 20 mM Tris-HCl pH 8 and 5% (v/v) DMSO) was preincubated either alone or with 15-fold molar excess of compound 1 in a final volume of 50 µL at 24°C for 1 h. Each sample was then dialysed against 1 L fresh assay buffer (20 mM Tris-HCl pH 8) at 4°C for 16 h. The enzyme activities of the samples were measured before dialysis and then measured after dialysis by measuring the rate of Ac-CoA (120 µM) hydrolysis in the presence of 150 µM HLZ.

[13] = molecular target: T1, MMNAT; test: Reversibility of inhibition by dialysis; type: biochemical, M. marinum; conditions: 15-fold molar excess, 1 h at 24°C, dialysis 16 h at 4°C
Method: as §3, §4

[14] = parameters: method as in PMID 16032973; conditions: cited from earlier work
[15] = 150 µM HLZ, 120 µM Ac-CoA, 24°C
[16] = 50 µM inhibitor, 150 µM HLZ, 120 µM Ac-CoA, 24°C, mean ± S.D. of triplicate

T2 sequence (P9WJI5 whole entry): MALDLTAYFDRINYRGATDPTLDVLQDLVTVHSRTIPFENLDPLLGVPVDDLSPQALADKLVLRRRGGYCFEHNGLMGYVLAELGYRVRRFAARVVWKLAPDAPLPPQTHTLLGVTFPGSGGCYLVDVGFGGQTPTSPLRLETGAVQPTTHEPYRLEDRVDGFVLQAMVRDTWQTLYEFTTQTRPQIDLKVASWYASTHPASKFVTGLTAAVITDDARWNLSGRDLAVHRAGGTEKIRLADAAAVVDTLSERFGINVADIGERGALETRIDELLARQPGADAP
T1 sequence (B2HIZ6 entry or part of it): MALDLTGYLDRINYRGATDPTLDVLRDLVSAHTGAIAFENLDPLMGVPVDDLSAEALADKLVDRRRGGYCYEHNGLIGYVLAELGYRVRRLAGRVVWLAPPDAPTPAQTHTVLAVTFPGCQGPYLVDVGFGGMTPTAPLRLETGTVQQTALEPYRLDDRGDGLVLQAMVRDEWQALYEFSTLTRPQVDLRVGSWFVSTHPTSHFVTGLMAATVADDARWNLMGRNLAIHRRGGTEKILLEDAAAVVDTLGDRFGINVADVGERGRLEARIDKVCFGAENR

Row | SMILES | MIC [1] | MIC [2] | IC50 [4, 15] | Δm of enzyme-inhibitor adduct (MMNAT) [6] | Molar ratio (inhibitor/protein) (MMNAT) [6] | inhibition at 50 µM [3, 16] | IC50 [3, 15] | inhibition at 50 µM [4, 16] | MMNAT kobs ([5]; inhibitor at 11.9 µM) | MIC M. bovis BCG [1] | MIC M. tuberculosis [2] | MMNAT % Inhibition [3, 16] | TBNAT % Inhibition [4, 16] | also measured
1 | O=C(c1ccccc1)C1CN(C2CCCCC2)CCC1(O)c1ccccc1 (centres unmarked) [compound 3] | 17.3 to 34.4 µM (≈ 6.29 to 12.5 µg/mL) | 2.8 to 13.8 µM (≈ 1.02 to 5.02 µg/mL) | 4400 ± 100 nM | 132 Da and 131.5 Da | 1 | – | – | – | – | – | – | – | – | inhibition at 50 µM [3]: 103 ± 1%; inhibition at 50 µM [4]: 72 ± 60%; MMNAT kobs ([5]; inhibitor at 5.9 µM): 573±18 10^−3 min^−1
2 | C=CC(=O)c1ccccc1 [PVK, phenyl vinyl ketone, reference compound] | – | – | – | 132 Da | 1 | – | – | – | – | – | – | – | – | mass difference of enzyme adduct (TBNAT) ([7]; ratio not stated): 132; inhibition of the NAT activity [8]: 100%
3 | CN1CCC(O)(c2ccccc2)C(C(=O)c2ccccc2)C1 (centres unmarked) [compound 1, (4-hydroxy-1-methyl-4-phenylpiperidin-3-yl)(phenyl)methanone] | 21.3 to 42.3 µM (≈ 6.29 to 12.5 µg/mL) | 3.4 to 16.9 µM (≈ 1 to 4.99 µg/mL) | 7700 ± 900 nM | 132 Da and 132.6 Da | 1 | 105 ± 1% | 1300 nM | 101 ± 1% | 9±2 10^−3 min^−1 | – | – | – | – | minimum inhibitory concentration (MIC) against M. tuberculosis ([9]; conversion of the µg/mL value): ~17 µM (≈ 5.02 µg/mL); minimum inhibitory concentration (MIC) against M. tuberculosis ([9]; reported over 50 years ago): less than 5 µg/mL; inhibition of eukaryotic NAT (human NAT1) [10]: did not show significant inhibition; inhibition of eukaryotic NAT (hamster NAT2) [11]: did not show significant inhibition; restoration of enzyme activity by dialysis (TBNAT) [12]: completely ineffective in restoring the activity; restoration of enzyme activity by dialysis (MMNAT) [13]: completely ineffective in restoring the activity; Molar ratio (inhibitor/protein) (TBNAT) ([7]; enzyme-to-inhibitor ratio 1∶15, proposed number of inhibition species bound per protein molecule): 1 and 2
4 | CN(CCC(=O)c1ccccc1)CCC(=O)c1ccccc1 [compound 5] | – | – | 1200 ± 100 nM | 132 Da and 129.7 Da | 1 | – | 140 ± 20 nM | – | 34±2 10^−3 min^−1 | 21.3 to 42.3 µM | 3.4 to 16.9 µM | 101±2% | 101±2% | toxicity compared to the cyclic piperidinol [14]: greater toxicity
5 | CN1CCC(O)(c2ccc(Cl)cc2)C(C(=O)c2ccc(Cl)cc2)C1 (centres unmarked) [compound 2] | – | – | 1600 ± 100 nM | 164 Da and 164.3 Da | 1 | – | 160 ± 10 nM | – | 110±2 10^−3 min^−1 | 17.3 to 34.3 µM | 2.7 to 13.7 µM | 103±2% | 98±1% | –
6 | CC1(C)CC(N2CCC(O)(c3ccccc3)C(C(=O)c3ccccc3)C2)CC(C)(C)N1 (centres unmarked) [compound 4] | 14.8 to 29.3 µM (≈ 6.22 to 12.3 µg/mL) | 2.3 to 11.7 µM (≈ 0.967 to 4.92 µg/mL) | 1100 ± 300 nM | 132 Da and 130.5 Da | 1 | 100 ± 2% | 2700 ± 400 nM | 67 ± 4% | 586±115 10^−3 min^−1 | – | – | – | – | –
